For this test, the target named is B-Raf (V600E)-kinase (Homo sapiens (Human), UniProt P15056, V600E). As to the kind of experiment: Kinase test B-RAF (V600E). The conditions noted are these: B-RAF (V600E) kinase test, 250 μM ATP. The format is biochemical. The gist of the method:
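Read-out is DELFIA europium TRF of phospho-MEK (Ser217/221) on biotinylated MEK1 bound to streptavidin plates, IC50 from dose-response. Reaction ran 60 min at RT with 250 μM ATP, after a 24 h RT preincubation of compound with B-Raf (V600E) kinase, 5% DMSO final.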
B-Raf (V600E)-kinase, sequence (P15056 whole entry V600E): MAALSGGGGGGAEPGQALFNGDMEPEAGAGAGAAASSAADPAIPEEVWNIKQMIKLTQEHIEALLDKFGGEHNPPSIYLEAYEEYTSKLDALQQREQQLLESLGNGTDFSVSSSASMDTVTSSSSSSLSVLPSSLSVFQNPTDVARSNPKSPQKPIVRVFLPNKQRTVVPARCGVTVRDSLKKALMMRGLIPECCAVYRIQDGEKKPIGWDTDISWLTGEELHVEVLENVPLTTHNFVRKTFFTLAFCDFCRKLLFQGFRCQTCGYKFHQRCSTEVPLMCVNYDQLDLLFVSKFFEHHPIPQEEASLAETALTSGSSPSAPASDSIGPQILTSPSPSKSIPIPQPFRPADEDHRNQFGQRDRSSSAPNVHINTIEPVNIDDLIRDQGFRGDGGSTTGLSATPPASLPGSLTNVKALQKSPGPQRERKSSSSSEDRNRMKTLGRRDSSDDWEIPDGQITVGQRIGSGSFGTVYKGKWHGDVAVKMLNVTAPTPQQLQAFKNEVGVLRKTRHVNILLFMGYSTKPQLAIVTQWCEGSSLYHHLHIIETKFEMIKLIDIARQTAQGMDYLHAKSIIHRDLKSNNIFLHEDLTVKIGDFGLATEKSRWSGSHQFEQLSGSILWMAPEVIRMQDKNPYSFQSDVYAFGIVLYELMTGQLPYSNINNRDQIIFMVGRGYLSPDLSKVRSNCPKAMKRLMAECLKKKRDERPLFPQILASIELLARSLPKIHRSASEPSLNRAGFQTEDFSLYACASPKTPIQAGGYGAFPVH
Compound `Cc1ccc(C(=O)Nc2cc(CN3CCCC3)cc(C(F)(F)F)c2)cc1Nc1ncnc2cnc(NCCc3ccccc3)nc12` [III-118] yielded an IC50 of 2 nM.
As to `Cc1ccc(C(=O)Nc2ccc(N(C)CCN(C)C)c(C(F)(F)F)c2)cc1Nc1ncnc2cnc(NCc3cccnc3)nc12` [III-129], the half-inhibitory concentration (IC50) turned out to be 2 nM.
With `Cc1ccc(C(=O)Nc2ccc(N(C)CCN(C)C)c(C(F)(F)F)c2)cc1Nc1ncnc2cnc(N3CCOCC3)nc12` [III-130], it took 3 nM to reach half-maximal inhibition (IC50).
In the case of `Cc1ccc(C(=O)Nc2ccc(N(C)CCN(C)C)c(C(F)(F)F)c2)cc1Nc1ncnc2cnc(NCc3ccccn3)nc12` [III-135], 4 nM corresponded to half-maximal inhibition (IC50). The IC50 values of the last two compounds are within 1.5-fold of each other.
`Cc1ccc(C(=O)Nc2ccc(N(C)CCN(C)C)c(C(F)(F)F)c2)cc1Nc1ncnc2cnc(NCc3ccncc3)nc12` [III-136] came in with an IC50 of 3 nM. The IC50 values of the last two compounds are within 1.5-fold of each other.
`COCCN(C)c1ncc2ncnc(Nc3cc(C(=O)Nc4cc(OCCN(C)C)cc(C(F)(F)F)c4)ccc3C)c2n1` [III-141] gave an IC50 of 2 nM.
`Cc1ccc(C(=O)Nc2cc(OCCN(C)C)cc(C(F)(F)F)c2)cc1Nc1ncnc2cnc(N3CCSCC3)nc12` [III-142]: the IC50 was 3 nM.
Regarding `Cc1ccc(C(=O)Nc2cc(OCCN(C)C)cc(C(F)(F)F)c2)cc1Nc1ncnc2cnc(N3CCC3)nc12` [III-143], the midpoint of inhibition, the IC50, lay at 2 nM.
Regarding `Cc1ccc(C(=O)Nc2cc(OCCN(C)C)cc(C(F)(F)F)c2)cc1Nc1ncnc2cnc(NCCF)nc12` [III-144], the IC50 is less than 1 nM.
Take `Cc1ccc(C(=O)Nc2cc(OCCN(C)C)cc(C(F)(F)F)c2)cc1Nc1ncnc2cnc(N3CCC(F)CC3)nc12` [III-145]: the IC50 came to 2 nM. In other words, the single-digit nanomolar range.
In turn, `Cc1ccc(C(=O)Nc2cc(OCCN(C)C)cc(C(F)(F)F)c2)cc1Nc1ncnc2cnc(NCC3CCOC3)nc12` (stereo not drawn) [III-146] gave a concentration for half-maximal inhibition (IC50) of less than 1 nM.
The figure for `Cc1ccc(C(=O)Nc2cc(OCCN(C)C)cc(C(F)(F)F)c2)cc1Nc1ncnc2cnc(NCc3ccccc3)nc12` [III-147] is 1 nM; for `Cc1ccc(C(=O)Nc2cc(OCCN(C)C)cc(C(F)(F)F)c2)cc1Nc1ncnc2cnc(N3CCOCC3)nc12` [III-149] it is less than 1 nM.
Take `Cc1ccc(C(=O)Nc2cc(OCCN(C)C)cc(C(F)(F)F)c2)cc1Nc1ncnc2cnc(N3CCCC3)nc12` [III-150]: the IC50 was determined as 2 nM.
The figure for `COCCNc1ncc2ncnc(Nc3cc(C(=O)Nc4cc(OCCN(C)C)cc(C(F)(F)F)c4)ccc3C)c2n1` [III-151] is 1 nM; for `Cc1ccc(C(=O)Nc2cc(OCCN(C)C)cc(C(F)(F)F)c2)cc1Nc1ncnc2cnc(NC3CC3)nc12` [III-152] it is less than 1 nM.
Compound `Cc1ccc(C(=O)Nc2cc(OCCN(C)C)cc(C(F)(F)F)c2)cc1Nc1ncnc2cnc(NCC(C)C)nc12` [III-153] came in with an IC50 of less than 1 nM.
Next, `Cc1ccc(C(=O)Nc2cc(OCCN(C)C)cc(C(F)(F)F)c2)cc1Nc1ncnc2cnc(N(C)C)nc12` [III-155]: 2 nM.
Regarding `CNc1ncc2ncnc(Nc3cc(C(=O)Nc4cc(OCCN(C)C)cc(C(F)(F)F)c4)ccc3C)c2n1` [III-156], the IC50 is less than 1 nM.
As for `CCN(CC)c1ncc2ncnc(Nc3cc(C(=O)Nc4cc(OCCN(C)C)cc(C(F)(F)F)c4)ccc3C)c2n1` [III-157], the IC50 is 3 nM. In other words, the single-digit nanomolar range.
Turning to `Cc1ccc(C(=O)Nc2cc(N(C)CCN(C)C)cc(C(F)(F)F)c2)cc1Nc1ncnc2cnc(NCc3cccnc3)nc12` [III-168], the IC50 was less than 1 nM.
In turn, `Cc1ccc(C(=O)Nc2cc(N(C)CCN(C)C)cc(C(F)(F)F)c2)cc1Nc1ncnc2cnc(NCc3ccccn3)nc12` [III-172] displayed an IC50 of 2 nM. That is a single-digit nanomolar value.
In the case of `Cc1ccc(C(=O)Nc2cc(N(C)CCN(C)C)cc(C(F)(F)F)c2)cc1Nc1ncnc2cnc(NCc3ccncc3)nc12` [III-173], the IC50 was determined as 1 nM. Compared with the last compound, the IC50 is about 2-fold lower.
The figure for `Cc1ccc(C(=O)NCC2CCOC2)cc1Nc1ncnc2cnc(N3CCCN(C)CC3)nc12` (stereo not drawn) [III-179] is more than 7000 nM; for `Cc1ccc(C(=O)Nc2cccc(C(C)(C)C#N)c2)cc1Nc1ncnc2cnc(N3CCCN(C)CC3)nc12` [III-180] it is 3 nM; for `COc1c(NC(=O)c2ccc(C)c(Nc3ncnc4cnc(N5CCCN(C)CC5)nc34)c2)cc(C(C)(C)C)cc1NS(C)(=O)=O` [III-181] it is 17 nM.
`Cc1ccc(C(=O)NCc2cccc(C(F)(F)F)c2)cc1Nc1ncnc2cnc(N3CCCN(C)CC3)nc12` [III-182]: the IC50 is 245 nM.
The compound `Cc1ccc(C(=O)NC2CCCCC2)cc1Nc1ncnc2cnc(N3CCCN(C)CC3)nc12` [III-183] yielded a half-inhibitory concentration (IC50) of more than 15000 nM.
`Cc1ccc(C(=O)Nc2ccccc2)cc1Nc1ncnc2cnc(N3CCCN(C)CC3)nc12` [III-184] came in with an IC50 of 2880 nM.
In turn, `Cc1ccc(C(=O)NC2CC2)cc1Nc1ncnc2cnc(N3CCCN(C)CC3)nc12` [III-185] showed an IC50 of more than 15000 nM.
With `Cc1ccc(C(=O)Nc2ccc3c(c2)C(C)(C)C(=O)N3CCN2CCCC2)cc1Nc1ncnc2cnc(N3CCN(C)CC3)nc12` [III-186], the IC50 was 26 nM.
Compound `Cc1ccc(C(=O)NCC2CCOC2)cc1Nc1ncnc2cnc(N3CCN(C)CC3)nc12` (stereo not drawn) [III-187] yielded an IC50 of more than 2000 nM.
Regarding `Cc1ccc(C(=O)NCc2cccc(C(F)(F)F)c2)cc1Nc1ncnc2cnc(N3CCN(C)CC3)nc12` [III-188], half-maximal inhibition (IC50) required 104 nM. That is a sub-micromolar value.
`Cc1ccc(C(=O)NC2CCCCC2)cc1Nc1ncnc2cnc(N3CCN(C)CC3)nc12` [III-189] had a concentration for half-maximal inhibition (IC50) of more than 15000 nM.
In turn, `Cc1ccc(C(=O)Nc2ccccc2)cc1Nc1ncnc2cnc(N3CCN(C)CC3)nc12` [III-190] returned an IC50 of 1540 nM.
The compound `Cc1ccc(C(=O)NC2CC2)cc1Nc1ncnc2cnc(N3CCN(C)CC3)nc12` [III-191] yielded an IC50 of more than 15000 nM.
Compound `Cc1ccc(C(=O)NCC2CCOC2)cc1Nc1ncnc2cnc(N3CCOCC3)nc12` (stereo not drawn) [III-193] returned a concentration for half-maximal inhibition (IC50) of more than 15000 nM.
Regarding `Cc1ccc(C(=O)NC2CC2)cc1Nc1ncnc2cnc(N3CCOCC3)nc12` [III-194], the IC50 is more than 2000 nM.
`Cc1ccc(C(=O)Nc2cccc(S(=O)(=O)N(C)C)c2)cc1Nc1ncnc2cnc(N(C)CCN(C)C)nc12` [III-195] registered an IC50 of 59 nM.
Next, `Cc1ccc(C(=O)Nc2ccc3c(c2)C(C)(C)C(=O)N3CCN2CCCC2)cc1Nc1ncnc2cnc(N(C)CCN(C)C)nc12` [III-196]: 16 nM.
Regarding `Cc1ccc(C(=O)NCC2CCOC2)cc1Nc1ncnc2cnc(N(C)CCN(C)C)nc12` (stereo not drawn) [III-197], the IC50 is more than 15000 nM.
Next, `Cc1ccc(C(=O)Nc2cccc(C(C)(C)C#N)c2)cc1Nc1ncnc2cnc(N(C)CCN(C)C)nc12` [III-198]: 11 nM; `COc1c(NC(=O)c2ccc(C)c(Nc3ncnc4cnc(N(C)CCN(C)C)nc34)c2)cc(C(C)(C)C)cc1NS(C)(=O)=O` [III-199]: 23 nM; `Cc1ccc(C(=O)NCc2cccc(C(F)(F)F)c2)cc1Nc1ncnc2cnc(N(C)CCN(C)C)nc12` [III-200]: 971 nM.
The compound `Cc1ccc(C(=O)NC2CCCCC2)cc1Nc1ncnc2cnc(N(C)CCN(C)C)nc12` [III-201] had an IC50 of more than 10000 nM.
The figure for `Cc1ccc(C(=O)Nc2ccccc2)cc1Nc1ncnc2cnc(N(C)CCN(C)C)nc12` [III-202] is more than 2000 nM.
Turning to `Cc1ccc(C(=O)NC2CC2)cc1Nc1ncnc2cnc(N(C)CCN(C)C)nc12` [III-203], the IC50 is more than 10000 nM.
As to `Cc1ccc(C(=O)NCC2CCOC2)cc1Nc1ncnc2cnc(N3CC[C@@H](F)C3)nc12` (stereo partly drawn) [III-205], the IC50 is more than 2000 nM.
`Cc1ccc(C(=O)Nc2cccc(C(C)(C)C#N)c2)cc1Nc1ncnc2cnc(N3CC[C@@H](F)C3)nc12` [III-206]: the midpoint of inhibition, the IC50, lay at 2 nM.
In turn, `Cc1ccc(C(=O)NCc2cccc(C(F)(F)F)c2)cc1Nc1ncnc2cnc(N3CC[C@@H](F)C3)nc12` [III-207] registered an IC50 of 11 nM.
In turn, `Cc1ccc(C(=O)NC2CCCCC2)cc1Nc1ncnc2cnc(N3CC[C@@H](F)C3)nc12` [III-208] displayed a 50% inhibitory concentration (IC50) of more than 2000 nM.
For the compound `Cc1ccc(C(=O)Nc2ccccc2)cc1Nc1ncnc2cnc(N3CC[C@@H](F)C3)nc12` [III-209], the IC50 was found to be 162 nM.
`Cc1ccc(C(=O)NC2CC2)cc1Nc1ncnc2cnc(N3CC[C@@H](F)C3)nc12` [III-210] came in with an IC50 of more than 2000 nM.
`Cc1ccc(C(=O)NCC2CCOC2)cc1Nc1ncnc2cnc(N3CCCCC3)nc12` (stereo not drawn) [III-212]: the concentration for half-maximal inhibition (IC50) is more than 15000 nM.
`Cc1ccc(C(=O)Nc2cccc(C(C)(C)C#N)c2)cc1Nc1ncnc2cnc(N3CCCCC3)nc12` [III-213]: the IC50 was 3 nM. This lies in the single-digit nanomolar range.
As to `Cc1ccc(C(=O)NCc2cccc(C(F)(F)F)c2)cc1Nc1ncnc2cnc(N3CCCCC3)nc12` [III-214], the IC50 turned out to be 56 nM.
As to `Cc1ccc(C(=O)NC2CCCCC2)cc1Nc1ncnc2cnc(N3CCCCC3)nc12` [III-215], the half-inhibitory concentration (IC50) is more than 10000 nM.
The figure for `Cc1ccc(C(=O)Nc2ccc(F)c(C(F)(F)F)c2)cc1Nc1ncnc2cnc(N3CCCN(C)CC3)nc12` [III-216] is 3 nM.
As to `Cc1ccc(C(=O)Nc2cccc(C(F)(F)F)c2)cc1Nc1ncnc2cnc(N3CCCN(C)CC3)nc12` [III-217], the IC50 is 2 nM.
Consider `Cc1ccc(C(=O)NCc2ccc(C(C)(C)C)cc2)cc1Nc1ncnc2cnc(N3CCCN(C)CC3)nc12` [III-218], for which the IC50 is 293 nM. This IC50 lies about 150-fold higher than the previous one.
`COc1ccc(C(F)(F)F)cc1NC(=O)c1ccc(C)c(Nc2ncnc3cnc(N4CCCN(C)CC4)nc23)c1` [III-219]: the IC50 stood at 8 nM.
Next, `Cc1ccc(C(=O)Nc2ccc(Cl)c(C(F)(F)F)c2)cc1Nc1ncnc2cnc(N3CCCN(C)CC3)nc12` [III-220]: 5 nM.
The figure for `Cc1ccc(C(=O)NCc2ccc(C(F)(F)F)cc2)cc1Nc1ncnc2cnc(N3CCCN(C)CC3)nc12` [III-221] is 171 nM; for `Cc1ccc(C(=O)Nc2cccc(OC(F)(F)F)c2)cc1Nc1ncnc2cnc(N3CCCN(C)CC3)nc12` [III-222] it is less than 1 nM; for `Cc1ccc(C(=O)Nc2cccc(C(C)(C)C)c2)cc1Nc1ncnc2cnc(N3CCCN(C)CC3)nc12` [III-224] it is less than 1 nM.
The compound `COc1ccc(C(C)(C)C)cc1NC(=O)c1ccc(C)c(Nc2ncnc3cnc(N4CCCN(C)CC4)nc23)c1` [III-225] displayed an IC50 of 2 nM. That is a single-digit nanomolar value.

(Values after US8653087B2, “Pyrido [5, 4-D] pyrimidines as cell proliferation inhibitors” (Boehringer Ingelheim International GmbH, priority 2008, dated 2014).)
